Data as given in patent US7407775B2, “Method for identifying Listeria monocytogenes and culture medium” (Biomerieux S.A., priority 2000, dated 2008).

Experiments:
Assay in all cases: Experiment 1: esterase substrates, same chromogenic marker, fatty acids of different chain lengths
Format in all cases: cell-based
Details in all cases: 37° C., substrate 250 mg/l
[1] = system: Listeria monocytogenes 092; set-up: key to I (intensity of the color): —: the symbol “-” corresponds to the absence of color or intensity; 0 corresponds to no activity; 0.1 corresponds to a trace of color; 0.5 corresponds to very pale coloration; 1 corresponds to clear but low-intensity coloration; 1.5 corresponds to a degree of coloration intermediate between scores 1 and 2; 2 corresponds to clear coloration of moderate intensity; 2.5 corresponds to a degree of coloration intermediate between scores 2 and 3; 3 corresponds to intense coloration; 3.5 corresponds to a degree of coloration intermediate between scores 3 and 4; 4 corresponds to very intense coloration
Procedure: (§1) A stock solution of each substrate at a concentration of 40 g/l was made up in a mixture of 40% Dimethylsulfoxide and 60% Polyoxyethylenesorbitan Monolaurate (Tween 20). An appropriate volume was added to three Columbia-type media while cooling to give a final substrate concentration of 250 mg/l. These dishes were divided into three areas and then each area was inoculated with a suspension (density=0.5 McFarland) of microorganisms taken from either the Applicant's own collection or the ATCC. The dishes were incubated for 48 hours at 37° C. The colonies which grew were examined by eye after 24 and 48 hours of incubation. Both the color and the intensity of the color of the colonies were recorded.
(§2) In Table 1 above, as in the following Tables, C represents the color of the colonies after incubation, I represents the intensity of the color, and the symbol “-” corresponds to the absence of color or intensity; finally, IT defines the incubation time. It should be noted that the intensity of the color is scored on an arbitrary scale but one which is consistent for all the biological specimens and media tested. This scale is valid for this experiment as well as all those that follow. It can be defined in the following way: • 0 corresponds to no activity, • 0.1 corresponds to a trace of color, • 0.5 corresponds to very pale coloration, • 1 corresponds to clear but low-intensity coloration, • 1.5 corresponds to a degree of coloration intermediate between scores 1 and 2, • 2 corresponds to clear coloration of moderate intensity, • 2.5 corresponds to a degree of coloration intermediate between scores 2 and 3, • 3 corresponds to intense coloration, • 3.5 corresponds to a degree of coloration intermediate between scores 3 and 4, • 4 corresponds to very intense coloration.

[2] = system: Listeria monocytogenes ATCC 19115; set-up: key to I (intensity of the color): —: the symbol “-” corresponds to the absence of color or intensity; 0 corresponds to no activity; 0.1 corresponds to a trace of color; 0.5 corresponds to very pale coloration; 1 corresponds to clear but low-intensity coloration; 1.5 corresponds to a degree of coloration intermediate between scores 1 and 2; 2 corresponds to clear coloration of moderate intensity; 2.5 corresponds to a degree of coloration intermediate between scores 2 and 3; 3 corresponds to intense coloration; 3.5 corresponds to a degree of coloration intermediate between scores 3 and 4; 4 corresponds to very intense coloration
Procedure: as §1, §2

[3] = system: Listeria monocytogenes ATCC 19117; set-up: key to I (intensity of the color): —: the symbol “-” corresponds to the absence of color or intensity; 0 corresponds to no activity; 0.1 corresponds to a trace of color; 0.5 corresponds to very pale coloration; 1 corresponds to clear but low-intensity coloration; 1.5 corresponds to a degree of coloration intermediate between scores 1 and 2; 2 corresponds to clear coloration of moderate intensity; 2.5 corresponds to a degree of coloration intermediate between scores 2 and 3; 3 corresponds to intense coloration; 3.5 corresponds to a degree of coloration intermediate between scores 3 and 4; 4 corresponds to very intense coloration
Procedure: as §1, §2

[4] = system: Listeria grayi ATCC 19120; set-up: key: —: the symbol “-” corresponds to the absence of color or intensity; 0 corresponds to no activity; 0.1 corresponds to a trace of color; 0.5 corresponds to very pale coloration; 1 corresponds to clear but low-intensity coloration; 1.5 corresponds to a degree of coloration intermediate between scores 1 and 2; 2 corresponds to clear coloration of moderate intensity; 2.5 corresponds to a degree of coloration intermediate between scores 2 and 3; 3 corresponds to intense coloration; 3.5 corresponds to a degree of coloration intermediate between scores 3 and 4; 4 corresponds to very intense coloration
Procedure: as §1, §2

Listeria innocua 166 = system: Listeria innocua 166; set-up: key: —: the symbol “-” corresponds to the absence of color or intensity; 0 corresponds to no activity; 0.1 corresponds to a trace of color; 0.5 corresponds to very pale coloration; 1 corresponds to clear but low-intensity coloration; 1.5 corresponds to a degree of coloration intermediate between scores 1 and 2; 2 corresponds to clear coloration of moderate intensity; 2.5 corresponds to a degree of coloration intermediate between scores 2 and 3; 3 corresponds to intense coloration; 3.5 corresponds to a degree of coloration intermediate between scores 3 and 4; 4 corresponds to very intense coloration
Procedure: as §1, §2

Listeria innocua 171 = system: Listeria innocua 171; set-up: key: —: the symbol “-” corresponds to the absence of color or intensity; 0 corresponds to no activity; 0.1 corresponds to a trace of color; 0.5 corresponds to very pale coloration; 1 corresponds to clear but low-intensity coloration; 1.5 corresponds to a degree of coloration intermediate between scores 1 and 2; 2 corresponds to clear coloration of moderate intensity; 2.5 corresponds to a degree of coloration intermediate between scores 2 and 3; 3 corresponds to intense coloration; 3.5 corresponds to a degree of coloration intermediate between scores 3 and 4; 4 corresponds to very intense coloration
Procedure: as §1, §2

Listeria seeligeri 011 = system: Listeria seeligeri 011; set-up: key: —: the symbol “-” corresponds to the absence of color or intensity; 0 corresponds to no activity; 0.1 corresponds to a trace of color; 0.5 corresponds to very pale coloration; 1 corresponds to clear but low-intensity coloration; 1.5 corresponds to a degree of coloration intermediate between scores 1 and 2; 2 corresponds to clear coloration of moderate intensity; 2.5 corresponds to a degree of coloration intermediate between scores 2 and 3; 3 corresponds to intense coloration; 3.5 corresponds to a degree of coloration intermediate between scores 3 and 4; 4 corresponds to very intense coloration
Procedure: as §1, §2

Compound	C (color of the colonies) ([1]; IT 24 h)	I (intensity of the color) ([1]; IT 24 h)	C (color of the colonies) ([1]; IT 48 h)	I (intensity of the color) ([1]; IT 48 h)	C (color of the colonies) ([2]; IT 24 h)	I (intensity of the color) ([2]; IT 24 h)	C (color of the colonies) ([2]; IT 48 h)	I (intensity of the color) ([2]; IT 48 h)	C (color of the colonies) ([3]; IT 24 h)	I (intensity of the color) ([3]; IT 24 h)	C (color of the colonies) ([3]; IT 48 h)	I (intensity of the color) ([3]; IT 48 h)	C (color of the colonies) ([4]; IT 24 h)	I (intensity of the color) ([4]; IT 24 h)	C (color of the colonies) ([4]; IT 48 h)	I (intensity of the color) ([4]; IT 48 h)	C (color of the colonies) (Listeria innocua 166; IT 24 h)	I (intensity of the color) (Listeria innocua 166; IT 24 h)	C (color of the colonies) (Listeria innocua 166; IT 48 h)	I (intensity of the color) (Listeria innocua 166; IT 48 h)	also measured
CCCCCCCC(=O)Oc1c[nH]c2ccc(Br)cc12 [Blue-C8, 5-Bromo-3-indolyl octanoate]	gray	1.5	gray	2.5	gray	1	gray	2	gray	1	gray	2	—	—	—	—	gray	0.3	gray	1	C (color of the colonies) (Listeria innocua 171; IT 24 h): —; I (intensity of the color) (Listeria innocua 171; IT 24 h): —; C (color of the colonies) (Listeria innocua 171; IT 48 h): gray; I (intensity of the color) (Listeria innocua 171; IT 48 h): 0.3; C (color of the colonies) (Listeria seeligeri 011; IT 24 h): —; I (intensity of the color) (Listeria seeligeri 011; IT 24 h): —; C (color of the colonies) (Listeria seeligeri 011; IT 48 h): gray; I (intensity of the color) (Listeria seeligeri 011; IT 48 h): 0.5
CCCCCCCCC(=O)Oc1c[nH]c2ccc(Br)cc12 [Blue-C9, 5-Bromo-3-indolyl nonanoate]	gray	1	gray	2	gray	1	gray	2	gray	1	gray	1.5	—	—	—	—	—	—	gray	0.5	C (color of the colonies) (Listeria innocua 171; IT 24 h): —; I (intensity of the color) (Listeria innocua 171; IT 24 h): —; C (color of the colonies) (Listeria innocua 171; IT 48 h): gray; I (intensity of the color) (Listeria innocua 171; IT 48 h): 0.3; C (color of the colonies) (Listeria seeligeri 011; IT 24 h): —; I (intensity of the color) (Listeria seeligeri 011; IT 24 h): —; C (color of the colonies) (Listeria seeligeri 011; IT 48 h): gray; I (intensity of the color) (Listeria seeligeri 011; IT 48 h): 0.5
CCCCCCCCCC(=O)Oc1c[nH]c2ccc(Br)cc12 [Blue-C10, 5-Bromo-3-indolyl decanoate]	gray	1	gray	2	gray	0.5	gray	1	gray	0.5	gray	1	—	—	—	—	—	—	gray	0.5	C (color of the colonies) (Listeria innocua 171; IT 24 h): —; I (intensity of the color) (Listeria innocua 171; IT 24 h): —; C (color of the colonies) (Listeria innocua 171; IT 48 h): gray; I (intensity of the color) (Listeria innocua 171; IT 48 h): 0.3; C (color of the colonies) (Listeria seeligeri 011; IT 24 h): —; I (intensity of the color) (Listeria seeligeri 011; IT 24 h): —; C (color of the colonies) (Listeria seeligeri 011; IT 48 h): gray; I (intensity of the color) (Listeria seeligeri 011; IT 48 h): 0.5
